Laboratory results published in patent US20140017187A1, “Use of 5-(7-methoxy-3,3-dimethyl-2,3-dihydro-1-benzoxepin-5-yl)-3-methyl-penta-2,4-dienoic acid as a cosmetic” (Merck Patent GmbH, priority 2008, published 2014).
Several values for one entry are separate records, joined by “and”; a condition that tells them apart may be missing. Identical values can stand only once.

Experiments:
human skin model = assay: cDNA microarray gene expression profiling (Affymetrix) of treated skin equivalents, GeneGO MetaCore analysis; type: cell-based
Protocol: One of the advantages of cDNA microarray is the possibility to observe the expression pattern of the whole genes and compare with different conditions. This is the first study to determine the gene expression profiles of Compound-treated human skin. For the analysis of deregulated gene expression induced by substance Compound, treated and control samples from a human skin model were analyzed with Affymetrix oligonucleotide microarrays. Skin has been among the first organs analysed using DNA-Microarrays. In addition, epidermal keratinocytes have been the target of many studies because they respond to a rich variety of inflammatory and immunmodulating cytokines, hormones, vitamins, ultraviolet (UV) light, toxins and physical injury. Altered gene expression after applying substance Compound was analysed with an Affymetrix system.
For gene expression studies skin equivalents were treated with 50 μL of 2 relevant substance Compound with a concentration of c=50 μM in PBS-buffer/DMSO. Buffer-treated skin equivalents served as controls.
A ratio (log 2) value of zero indicates no regulation, whereas positive (log 2) values indicate an upregulation and negative (log 2) values a downregulation of the relevant gene.
The experiment contains 759 genes with the specified threshold (Appendix A)
GeneGO's Metacore (Pathways and Maps) Software.
Enrichment analysis consists of matching gene IDs for the common, similar and unique sets of the uploaded files with gene IDs in functional ontologies in MetaCore. The ontologies include canonical pathway maps, GeneGo cellular processes, GO cellular processes and diseases categories. The degree of “relevance” to different categories for the uploaded datasets is defined by p-values, so that the lower p-value gets higher priority.

[1] = test system: epidermal differentiation proteins; assay: In vitro expression of epidermal differentiation proteins; type: cell-based; settings: own unpublished results
PPARγ = PPARγ luciferase reporter gene activation in CV1 cells expressing endogenous PPARγ; type: cell-based, green monkey; settings: for Fold Activation PPAR gamma, MEAN: mean of the two experiments in triplicate; for Fold Activation PPAR gamma: single values of triplicates, two experiments, relative to control
Source text: Analysis of the activation of PPARα and PPARγ is based on the transfection of a DNA allowing the expression of a reporter gene (the gene of luciferase) under the control of the PPARs, either endogenous in the case of PPARγ or cotransfected in the case of PPARα. The reporter plasmid J3TkLuc comprises three copies of the response element for PPARs of the human apo A-II gene (Staels, B et al. (1995), J. Clin. Invest., 95, 705-712) which are cloned upstream of the promoter of the thymidine kinase gene of the herpes simplex virus in the plasmid pGL3. This reporter gene was obtained by subcloning, in the plasmid pGL3, the plasmid J3TkCAT described above (Fajas, L et al. (1997), J. Biol. Chem., 272, 18779-18789). […] These cells were inoculated at a density of 20,000 cells per well (96-well plates) and transfected with 150 ng of reporter DNA complexed with a mixture of lipids. In the case of the SK-Hep1 cells, an expression vector for PPARα, described by Sher, T. et al. (1993), Biochemistry, 32, 5598-5604, is cotransfected. After 5 hours, the cells are washed twice and incubated for 36 hours in the presence of the test compound in a fresh culture medium comprising 10% foetal calf serum. At the end of incubation, the cells are lysed and the luciferase activity is measured.

animal models = settings: in vivo

COc1ccc2c(c1)C(/C=C/C(C)=C/C(=O)O)=CC(C)(C)CO2 [Compound, 5-(7-methoxy-3,3-dimethyl-2,3-dihydro-1-benzoxepin-5-yl)-3-methyl-penta-2,4-dienoic acid]
Compound vs. Control, ratio Log(2) value (human skin model; gene FGF11 (FGF11_HUMAN, Fibroblast growth factor 11)): 0.9322 Log(2)
Compound vs. Control, ratio Log(2) value (human skin model; gene FLNB (FLNB_HUMAN, Filamin-B)): 0.6681 Log(2)
Compound vs. Control, ratio Log(2) value (human skin model; gene FN1 (FINC_HUMAN, Fibronectin precursor)): 1.364 Log(2)
Compound vs. Control, ratio Log(2) value (human skin model; gene GPC4 (GPC4_HUMAN, Glypican-4 precursor)): 0.7558 Log(2)
Compound vs. Control, ratio Log(2) value (human skin model; gene GPC6 (GPC6_HUMAN, Glypican-6 precursor)): 0.6711 Log(2)
Compound vs. Control, ratio Log(2) value (human skin model; gene GPX7 (GPX7_HUMAN, Glutathione peroxidase 7 precursor)): 0.8162 Log(2)
Compound vs. Control, ratio Log(2) value (human skin model; gene HAS2 (HAS2_HUMAN, Hyaluronan synthase 2)): 0.8154 Log(2)
Compound vs. Control, ratio Log(2) value (human skin model; gene ICAM1 (ICAM1_HUMAN, Intercellular adhesion molecule 1 precursor)): −1.612 Log(2)
Compound vs. Control, ratio Log(2) value (human skin model; gene IL6 (IL6_HUMAN, Interleukin-6 precursor)): −1.09 Log(2)
Compound vs. Control, ratio Log(2) value (human skin model; gene IL6ST (IL6RB_HUMAN, Interleukin-6 receptor subunit beta precursor)): −1.628 Log(2)
Compound vs. Control, ratio Log(2) value (human skin model; gene IL8 (IL8_HUMAN, Interleukin-8 precursor)): −0.6883 Log(2)
Compound vs. Control, ratio Log(2) value (human skin model; gene INSIG2 (INSI2_HUMAN, Insulin-induced gene 2 protein)): 0.6645 Log(2)
Compound vs. Control, ratio Log(2) value (human skin model; gene ITGB5 (ITB5_HUMAN, Integrin beta-5 precursor)): 0.7305 Log(2)
Compound vs. Control, ratio Log(2) value (human skin model; gene ITIH5 (ITIH5_80760, inter-alpha (globulin) inhibitor H5)): 1.192 Log(2)
Compound vs. Control, ratio Log(2) value (human skin model; gene LAMA3 (LAMA3_HUMAN, Laminin subunit alpha-3 precursor)): 0.6648 Log(2)
Compound vs. Control, ratio Log(2) value (human skin model; gene LAMB3 (LAMB3_HUMAN, Laminin subunit beta-3 precursor)): 1.168 Log(2)
Compound vs. Control, ratio Log(2) value (human skin model; gene LAMC1 (LAMC1_HUMAN, Laminin subunit gamma-1 precursor)): 0.7744 Log(2)
Compound vs. Control, ratio Log(2) value (human skin model; gene LEP (LEP_HUMAN, Leptin precursor)): 3.891 Log(2)
Compound vs. Control, ratio Log(2) value (human skin model; gene LEPR (LEPR_HUMAN, Leptin receptor precursor)): 0.7216 Log(2)
Compound vs. Control, ratio Log(2) value (human skin model; gene MMP9 (MMP9_HUMAN, Matrix metalloproteinase-9 precursor)): −0.8347 Log(2)
Compound vs. Control, ratio Log(2) value (human skin model; gene MMP11 (MMP11_HUMAN, Stromelysin-3 precursor)): −1.085 Log(2)
Compound vs. Control, ratio Log(2) value (human skin model; gene MMP14 (MMP14_HUMAN, Matrix metalloproteinase-14 precursor)): −0.6909 Log(2)
Compound vs. Control, ratio Log(2) value (human skin model; gene PLOD2 (PLOD2_HUMAN, Procollagen-lysine,2-oxoglutarate 5-dioxygenase 2 precursor)): 1.455 Log(2)
Compound vs. Control, ratio Log(2) value (human skin model; gene RXRA (RXRA_HUMAN, Retinoic acid receptor RXR-alpha)): 0.7793 Log(2)
Compound vs. Control, ratio Log(2) value (human skin model; gene S100A7 (S10A7_HUMAN, Protein S100-A7)): −0.6784 Log(2)
Compound vs. Control, ratio Log(2) value (human skin model; gene S100A7A (S1A7A_HUMAN, Protein S100-A7A)): −2.659 Log(2)
Compound vs. Control, ratio Log(2) value (human skin model; gene S100A12 (S10AC_HUMAN, Protein S100-A12)): −0.7202 Log(2)
Compound vs. Control, ratio Log(2) value (human skin model; gene SCARB1 (SCRB1_HUMAN, Scavenger receptor class B member 1)): 0.8349 Log(2)
Compound vs. Control, ratio Log(2) value (human skin model; gene TGFA (TGFA_HUMAN, Protransforming growth factor alpha precursor)): 0.8031 Log(2)
Compound vs. Control, ratio Log(2) value (human skin model; gene UGCG (CEGT_HUMAN, Ceramide glucosyltransferase)): 0.7977 Log(2)
Compound vs. Control, ratio Log(2) value (human skin model; gene VLDLR (VLDLR_HUMAN, Very low-density lipoprotein receptor precursor)): 0.9666 Log(2)
effect on GPC6 and S100A7 genes compared with old skin (human skin model; old skin (literature): S100A7 upregulated, GPC6 downregulated): opposite effect
expression of epidermal differentiation proteins [1]: increased expression
Fold Activation PPAR gamma, MEAN (PPARγ; 0.3 μm): 0.9 fold
Fold Activation PPAR gamma, MEAN (PPARγ; 1 μm): 1.0 fold
Fold Activation PPAR gamma (PPARγ; 1 μm): 0.8 fold and 1.2 fold and 0.9 fold and 1.0 fold and 1.3 fold
Fold Activation PPAR gamma, MEAN (PPARγ; 3 μm): 1.5 fold
Fold Activation PPAR gamma (PPARγ; 3 μm): 1.2 fold and 1.6 fold and 1.3 fold and 2.1 fold
Fold Activation PPAR gamma, MEAN (PPARγ; 10 μm): 5.2 fold
Fold Activation PPAR gamma, MEAN (PPARγ; 30 μm): 14.4 fold
Fold Activation PPAR gamma, MEAN (PPARγ; 50 μm): 17.6 fold
Fold Activation PPAR gamma, MEAN (PPARγ; 100 μm): 15.2 fold
toxic effect in animal models (animal models): no toxic effect
